Data reported in ChEMBL document CHEMBL4418910, “Methods for categorising cancer such as breast cancer” (2018).

Tests used:
[1] = target: T1, Serine/threonine-protein kinase LMTK3 (Homo sapiens, UniProt Q96Q04); assay: Inhibition of N-terminal GST tag LMTK3 kinase domain (133 to 415 amino acids) (unknown origin) expressed in insect cells incubated for 120 mins by […] fluorescent detection based CisBio KinEASE STK-S1 kit based assay
T1 sequence (Q96Q04 whole entry): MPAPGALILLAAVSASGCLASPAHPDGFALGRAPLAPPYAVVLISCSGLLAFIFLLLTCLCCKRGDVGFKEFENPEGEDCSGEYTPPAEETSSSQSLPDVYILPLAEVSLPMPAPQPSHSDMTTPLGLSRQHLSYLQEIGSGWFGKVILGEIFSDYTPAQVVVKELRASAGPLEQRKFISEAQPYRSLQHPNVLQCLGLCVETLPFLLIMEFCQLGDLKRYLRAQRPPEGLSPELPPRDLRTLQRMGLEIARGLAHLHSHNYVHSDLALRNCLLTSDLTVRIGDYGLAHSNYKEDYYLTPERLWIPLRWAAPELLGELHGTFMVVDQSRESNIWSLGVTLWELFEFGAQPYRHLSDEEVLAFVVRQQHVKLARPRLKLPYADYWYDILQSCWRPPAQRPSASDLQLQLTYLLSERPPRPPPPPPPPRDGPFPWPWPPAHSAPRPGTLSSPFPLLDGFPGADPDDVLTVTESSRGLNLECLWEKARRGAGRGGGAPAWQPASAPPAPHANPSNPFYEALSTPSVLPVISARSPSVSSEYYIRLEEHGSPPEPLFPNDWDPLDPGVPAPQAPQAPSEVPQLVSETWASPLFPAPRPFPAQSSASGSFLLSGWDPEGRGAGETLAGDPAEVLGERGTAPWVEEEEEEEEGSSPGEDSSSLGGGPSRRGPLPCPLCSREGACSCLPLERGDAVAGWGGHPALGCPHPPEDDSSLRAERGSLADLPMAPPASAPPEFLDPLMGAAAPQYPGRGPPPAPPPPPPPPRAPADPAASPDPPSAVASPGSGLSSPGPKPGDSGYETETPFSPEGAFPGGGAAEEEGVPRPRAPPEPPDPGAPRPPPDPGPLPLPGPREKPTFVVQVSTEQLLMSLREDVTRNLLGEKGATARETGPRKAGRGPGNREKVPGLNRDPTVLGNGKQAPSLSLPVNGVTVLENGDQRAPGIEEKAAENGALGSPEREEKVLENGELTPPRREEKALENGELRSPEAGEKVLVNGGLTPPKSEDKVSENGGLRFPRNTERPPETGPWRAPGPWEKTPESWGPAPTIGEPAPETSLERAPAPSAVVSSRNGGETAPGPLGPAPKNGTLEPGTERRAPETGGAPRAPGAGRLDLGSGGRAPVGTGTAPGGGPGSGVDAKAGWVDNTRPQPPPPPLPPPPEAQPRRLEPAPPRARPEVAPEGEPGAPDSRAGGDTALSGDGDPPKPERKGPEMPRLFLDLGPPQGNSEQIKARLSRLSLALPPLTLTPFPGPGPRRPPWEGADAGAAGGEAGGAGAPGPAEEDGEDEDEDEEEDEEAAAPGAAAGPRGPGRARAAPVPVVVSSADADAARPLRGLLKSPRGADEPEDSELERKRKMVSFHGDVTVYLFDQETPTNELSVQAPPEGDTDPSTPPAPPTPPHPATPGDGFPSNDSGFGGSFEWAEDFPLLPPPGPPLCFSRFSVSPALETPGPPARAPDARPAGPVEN

[2] = target: T2, Serine/threonine-protein kinase LMTK3 (Homo sapiens) (UniProt Q96Q04); assay: Inhibition of N-terminal GST tag LMTK3 kinase domain (133 to 415 amino acids) (unknown origin) expressed in insect cells incubated for 120 mins by […] fluorescent detection based CisBio KinEASE STK-S1 kit based assay relative to untreated control
T2 sequence (whole entry): T1 sequence (Q96Q04 whole entry)

## CN(C)CCCn1cc(C2=C(c3c[nH]c4ccccc34)C(=O)NC2=O)c2ccccc21 [GF-109203]
[1]
  IC50: 0.132 nM
[2]
  inhibition: 108%

## COC(=O)[C@@]1(O)C[C@H]2O[C@]1(C)n1c3ccccc3c3c4c(c5c6ccccc6n2c5c31)C(=O)NC4
[2]
  inhibition: 98.9%

## CCCCCCOC(=O)[C@]1(O)C[C@H]2O[C@]1(C)n1c3ccccc3c3c4c(c5c6ccccc6n2c5c31)C(=O)NC4
[1]
  IC50: 0.117 nM
[2]
  inhibition: 98.7%

## CN[C@@H]1C[C@H]2O[C@@](C)([C@@H]1OC)n1c3ccccc3c3c4c(c5c6ccccc6n2c5c31)C(=O)NC4
[2]
  inhibition: 109%
